Assay results published in a melting point compilation (Tetko et al.).

melting point | Structure (SMILES)
118 to 120 °C | Cc1ccc2ncccc2c1[N+](=O)[O-]
243 to 245 °C | O=C(O)C=Cc1ccc(N2CCCC2)c([N+](=O)[O-])c1
106 to 108 °C | N#Cc1ccc(N2CCCC2)cn1
-60 °C | CCCCOCCOCCOCCCC
85.5 to 87.5 °C | O=C=Nc1ccc(-c2ncccn2)cc1
55.5 °C | Cc1c([N+](=O)[O-])cc(C(C)C)c(O)c1[N+](=O)[O-]
254 °C | CC(=O)Nc1cccc(N=[N+]([O-])c2cccc(NC(C)=O)c2)c1
74 to 75 °C | COC(=O)c1sc(C(F)(F)F)c(-c2ccccc2)c1S(=O)(=O)Cl
140 to 144 °C | CCOc1ccc(C(=O)C=CC(=O)O)cc1
250 °C | Nc1c(C(=O)O)sc2nccnc12
115 °C | O=C(O)C(O)c1ccccc1F (centres undefined)
85 °C | COc1ccccc1C(=S)N1CCCCC1
156 to 158 °C | Cn1nc(C(=O)O)cc1-c1cccs1
168 °C | NC(=O)NN=C(O)Cc1ccccc1
76 °C | Cc1cccc(OCC(O)CNC(C)C)c1 (centres undefined)
154 °C | O=C(O)Cc1ccc([N+](=O)[O-])cc1
240 °C | COc1ccc(C(=O)C2=NN(c3ccccc3)C3C(=O)N(c4cc(Cl)ccc4Cl)C(=O)C23)cc1 (centres undefined)
47 °C | Nc1c(F)ccc(Cl)c1F
-78 °C | CCCCC(CC)COC(=O)CCCCCCCC(=O)OCC(CC)CCCC (centres undefined)
188 °C | N#Cc1cc([N+](=O)[O-])cc(Br)c1N
234 to 237 °C | CSc1nc(N)nc(-c2ccncc2)n1
222 °C | O=[N+]([O-])c1ccc(NN=Cc2cccc3c(Br)cccc23)c([N+](=O)[O-])c1
102 to 104 °C | CCNC(=S)Nc1ccccc1
48 to 49 °C | Brc1ccc(Oc2ccc(Br)c(Br)c2)cc1
64 to 65 °C | CCOC(=O)OC(=O)C1=CC(C)(C)N(O)C1(C)C
43 °C | COc1cc2c(cc1C(C)C)C(=O)C2
27.5 °C | COC(=O)CC(C)=O

melting point | Structure (SMILES)
17 °C | CC(C)CS(=O)(=O)CC(C)C
75 °C | C1CN(CCN2CCOCC2)CCO1
254 to 257 °C | COc1cc2c(cc1O)CN(C1CC=CC(=O)C1)CC2 (centres undefined)
121 °C | CC12CCC(C(C(Br)N(O)c3ccccc3)C1=O)C2(C)C (centres undefined)
126 to 127 °C | CSc1nc(N)c(C(=O)c2ccccc2)s1
165 °C | NS(=O)(=O)c1ccc(S(=O)(=O)CCO)cc1
295 to 297 °C | Nc1ncccc1C(=O)O
151 to 153 °C | N#Cc1ccc(-n2ccnc2)cc1
35 °C | Cc1ccc([N+](=O)[O-])cc1F
123 to 124 °C | CCOC(=O)C(C#N)=Cc1ccc(-c2ccccc2Br)o1
63 to 65 °C | O=C(O)C1CCC(C(F)(F)F)CC1 (centres undefined)
82 °C | CC1=C(C)C(O)OC1=O (centres undefined)
63 to 64 °C | Cn1c(C=O)cc2sccc21
243 to 245 °C | COc1ccc(C=C2C(=O)NC(=N)N2C)cc1OC
95 to 97 °C | N#CCc1ccc(OS(=O)(=O)c2ccc(Cl)cc2)cc1
269 °C | Cc1nn(C)c2ncc(C(=O)O)c(Cl)c12
102 °C | O=S(=O)(O)c1ccc(Cl)cc1
118 to 120 °C | O=C(NCCCCCCCCNC(=O)C(Cl)Cl)C(Cl)Cl
180 to 181 °C | CC1=NN(c2ccccc2)C(=O)C1=CC1C(=O)N(c2ccccc2)N=C1C (centres undefined)
221 to 226 °C | CC(=O)c1ccc(O)c(C(N)=O)c1
134 °C | Nc1c(I)cc(I)c(C(=O)N(CCC(=O)O)c2ccccc2)c1I
144 to 146 °C | O=[N+]([O-])c1ccc(-c2ccc([N+](=O)[O-])cc2Cl)cc1
170 °C | Cc1nc2n(c(=O)c1CCN1CCC(c3noc4cc(F)ccc34)CC1)CCCC2
270 °C | N#C/C(=N\Nc1cccc(C(F)(F)F)c1)c1nc2ccccc2[nH]1
180 to 183 °C | NC(CS(=O)(=O)c1ccc(F)cc1)=NO
157 °C | N#CN=C(Oc1ccccc1)Oc1ccccc1
76 to 78 °C | COC(=O)c1scc(C)c1Cl

melting point | Structure (SMILES)
110 °C | O=C(CCc1ccc(O)cc1)c1c(O)cc(O)cc1OC1OC(CO)C(O)C(O)C1O (centres undefined)
111 °C | c1cc(OCC2CO2)ccc1OCC1CO1 (centres undefined)
165 °C | CC(C)N1CSc2nnc(-c3cccc([N+](=O)[O-])c3)n2C1
254 °C | Nc1cc(Cl)c(S(N)(=O)=O)cc1S(N)(=O)=O
117 to 119 °C | CC(=NO)c1ccccn1
136 to 137 °C | NC(=S)c1ccc(C(F)(F)F)cc1
183 to 187 °C | O=C(N[C@@H](Cc1ccccc1)C(=O)O)OCC1c2ccccc2-c2ccccc21
175 °C | N#C/C(=N\Nc1cccc(O)c1)c1nc2ccccc2s1
210 to 215 °C | N#CCc1nc2ccccc2[nH]1
157 °C | CN(C)c1ccn2c(=O)c3ccccc3cc2c1
103 to 105 °C | N#C/C(=C/c1ccc(Cl)cc1)c1nc(-c2ccccc2)cs1
314 °C | CC1(C)CC(=O)C2=C(C1)Nc1ccc3ccccc3c1C2c1ccc(O)cc1 (centres undefined)
90 to 93 °C | O=S(=O)(c1ccccc1)n1ccc2cc(Br)ccc21
67 to 70 °C | O=[N+]([O-])c1ccc(Cl)c(N=C=S)c1
172 °C | Cc1nc(Cl)c(C(N)=O)c(C)c1Cl
100 to 101 °C | CCOC(=O)c1c(NC(=O)CN2CCCCC2)sc2c1CCCC2
200 °C | O=[N+]([O-])c1cccc(-c2nnc3n2NCS3)c1
222 °C | NS(=O)(=O)c1cc2c(cc1C(F)(F)F)NC(Cc1ccccc1)NS2(=O)=O (centres undefined)
83 to 84 °C | OCc1cc(C(F)(F)F)ccc1N1CCOCC1
-75 °C | CC[Si](Cl)(CC)CC
196 °C | O=C(O)C1CC1C(=O)Nc1ccc(Cl)cc1Cl (centres undefined)
119 to 121 °C | COC(=O)c1ccc(N2CCCC2)nc1
30 to 31 °C | Clc1ccc(OCCCCBr)cc1
300 to 302 °C | Cn1cnc2c(N)ncnc21
38.5 °C | CC1(O)C(=O)CC2CC1C2(C)C (centres undefined)

Structure (SMILES) | melting point
COc1ccn(C)c(=O)c1C#N | 202 °C
CC(CO)c1c(O)c(O)c2c(c1O)C(=O)C(=O)C1C(C)(C)CCCC21C (centres undefined) | 239 °C
Cc1cccc2sc3nncn3c12 | 187 °C
COc1ccc2c(C(=O)c3ccc(Cl)cc3)c(C)n(CC(=O)O)c2c1 | 242 °C
O=C(NC(=O)c1c(F)cccc1F)Nc1cc(Cl)c(Oc2ncc(C(F)(F)F)cc2Cl)c(Cl)c1 | 223 °C
CN1C2CCC1C(C(=O)O)C(O)C2 (centres undefined) | 205 °C
COc1ccc(CC2c3cc(OC)c(OC)cc3CCN2C)cc1O (centres undefined) | 184 °C
CC(C)CCCC(C)C1CCC2C3CC=C4CC(OC(=O)Cl)CCC4(C)C3CCC12C (centres undefined) | 118 °C
CCOC1C(=O)NC2=C(C1=O)C(c1ccc(Br)cc1)c1c(c3ccccc3oc1=O)O2 (centres undefined) | 196 °C
FCC(F)(F)C(F)F | -82 °C
